Experimental findings from patent US6620828B2, “Thiazole compounds and pharmaceutical compositions for inhibiting protein kinases and methods for their use” (Agouron Pharmaceuticals, Inc., priority 1999, dated 2003) are described below.

Holding throughout (format): biochemical
In experiment [1] the target is T1, FL-CHK1 (Homo sapiens, UniProt O14757).
T1 construct: C-terminally His-tagged full-length human CHK1 (FL-CHK1); 6xHis (C); made in house; host or cells: baculovirus/insect cells
T1 sequence (O14757 1-476): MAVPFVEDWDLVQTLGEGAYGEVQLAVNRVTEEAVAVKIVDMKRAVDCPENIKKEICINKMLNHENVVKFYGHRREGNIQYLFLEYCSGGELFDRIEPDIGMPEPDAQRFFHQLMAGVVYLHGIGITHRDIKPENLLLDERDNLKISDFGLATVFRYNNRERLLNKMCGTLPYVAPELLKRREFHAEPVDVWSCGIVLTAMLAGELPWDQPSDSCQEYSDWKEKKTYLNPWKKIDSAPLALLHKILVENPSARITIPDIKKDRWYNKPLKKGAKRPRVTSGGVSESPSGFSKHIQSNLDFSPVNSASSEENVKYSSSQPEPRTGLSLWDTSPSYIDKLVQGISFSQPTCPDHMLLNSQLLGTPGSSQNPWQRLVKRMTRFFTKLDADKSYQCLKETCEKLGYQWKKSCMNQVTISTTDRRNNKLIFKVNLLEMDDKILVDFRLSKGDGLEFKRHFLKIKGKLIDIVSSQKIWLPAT
Put plainly: CHK1 assay. The note with it: 20 μM; combinatorial library compounds. In short, it runs like this:
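Full-length human CHK1 with C-terminal 6×His tag, made in baculovirus/insect cells, 10 nM, phosphorylating 0.125 mM Syntide-2 with 0.15 mM ATP in 50 mM Tris pH 7.5, 25 mM MgCl2, 400 mM NaCl. PK/LDH-coupled NADH oxidation read at 340 nm. Ki from initial rates over varied compound concentrations.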

Experiment [2] addresses T2, CDK4/Cyclin D3 complex (Homo sapiens, UniProt P11802).
T2 construct: made in house; host or cells: insect cells co-infected with baculovirus vectors
Put plainly: CDK4/Cyclin D assay. To be noted: 1.0 μM; combinatorial library compounds. A digest of the protocol: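 Insect-cell-expressed CDK4/cyclin D3 (50 nM) phosphorylating His-tagged Rb fragment (residues 386-928) with 25 μM [^32P]ATP in HEPES pH 7.4, MgCl2, 2% DMSO; 20 min at 30 °C, EDTA stop. Filter-captured 32P by phosphorimager; apparent Ki from competitive or tight-binding inhibition fits.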

For experiment [3], the target named is CDK2/Cyclin A complex (Homo sapiens, UniProt P24941). Kind of experiment: CDK2/Cyclin A assay. The note with it: 1.0 μM; combinatorial library compounds. In short, it runs like this:
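Radiometric assay: 150 nM CDK2/cyclin A (insect-cell CDK2, truncated cyclin A) phosphorylates His-tagged Rb fragment (residues 386-928) with 25 μM ATP plus [32P]ATP, pH 7.4 HEPES, 2% DMSO, 30 °C for 20 min. Filter-captured product counted by phosphorimager; apparent Ki from competitive or tight-binding inhibition fits.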

The target of experiment [4] is T3, phosphorylated VEGF-R2Δ50 (FLVK-P) (Homo sapiens, UniProt P35968, DEL940-989/E990V).
T3 construct: VEGF-R2Δ50 contains residues 806-939 and 990-1171; made in house; host or cells: baculovirus/insect cells
T3 sequence (P35968 with tags, fused parts or gaps DEL940-989/E990V limits assumed): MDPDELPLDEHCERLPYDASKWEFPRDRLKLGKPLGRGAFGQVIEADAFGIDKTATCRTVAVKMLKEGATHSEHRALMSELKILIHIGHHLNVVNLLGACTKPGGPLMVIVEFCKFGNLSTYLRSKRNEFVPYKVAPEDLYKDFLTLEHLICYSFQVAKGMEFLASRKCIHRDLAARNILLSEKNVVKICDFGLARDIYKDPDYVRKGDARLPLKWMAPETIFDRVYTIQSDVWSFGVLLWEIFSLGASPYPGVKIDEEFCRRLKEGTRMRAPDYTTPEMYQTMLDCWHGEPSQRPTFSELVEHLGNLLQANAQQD
Kind of experiment: VEGF-R2 coupled spectrophotometric (FLVK-P) assay. The note with it: read-out: VEGF % inhibition at 20 μM, 20 μM; combinatorial library compounds. A digest of the protocol:
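Baculovirus-expressed human VEGF-R2Δ50 (residues 806-939/990-1171, E990V) was autophosphorylated with 3 mM ATP, 40 mM MgCl2 for 2 h at 4° C. ADP formation was coupled via PK/LDH to NADH oxidation, read at 340 nm, with 5.1 mM poly(E4Y1), 1 mM ATP, 25 mM MgCl2, Hepes pH 7.5. Ki came from activity across compound concentrations.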

T2 sequence (P11802 whole entry): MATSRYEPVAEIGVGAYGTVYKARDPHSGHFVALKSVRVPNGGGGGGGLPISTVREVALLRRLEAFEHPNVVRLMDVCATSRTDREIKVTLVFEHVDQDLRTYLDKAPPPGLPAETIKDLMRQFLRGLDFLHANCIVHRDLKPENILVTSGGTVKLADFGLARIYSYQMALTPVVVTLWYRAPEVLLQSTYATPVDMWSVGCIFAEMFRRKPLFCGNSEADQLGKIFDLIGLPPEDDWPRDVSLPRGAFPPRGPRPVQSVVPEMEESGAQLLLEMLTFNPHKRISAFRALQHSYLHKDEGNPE
T2 sequence (P30281 whole entry partner): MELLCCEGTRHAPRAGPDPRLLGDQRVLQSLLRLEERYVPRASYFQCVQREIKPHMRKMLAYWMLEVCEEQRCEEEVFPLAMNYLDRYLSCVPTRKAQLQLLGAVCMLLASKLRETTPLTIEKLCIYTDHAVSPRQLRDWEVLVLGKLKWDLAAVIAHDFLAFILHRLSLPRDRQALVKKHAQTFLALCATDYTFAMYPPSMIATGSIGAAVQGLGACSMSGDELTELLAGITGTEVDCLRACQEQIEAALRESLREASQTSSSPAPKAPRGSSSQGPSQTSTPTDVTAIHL

As for `CN(C)c1ccc(Nc2nc(N)c(-c3nc(-c4ccc(O)c(O)c4)cs3)s2)cc1`, the inhibition at 20 µM in experiment [1] was determined as 46.5%; in experiment [4] it was 34%. Besides, the inhibition at 1 µM was determined as 53% in experiment [2] and 16.8% in experiment [3].

Regarding `CN(C)c1ccc(Nc2nc(N)c(-c3nc(-c4cc(Br)c(Cl)s4)cs3)s2)cc1`, the results for the inhibition at 20 µM in experiment [1] and in experiment [4] were 22.8% and 18%, respectively. For the same molecule, the figures for the inhibition at 1 µM in experiment [2] and in experiment [3] were 69.1% and 17.6%, respectively.

Regarding `CN(C)c1ccc(Nc2nc(N)c(-c3nc(-c4ccc(Cl)c([N+](=O)[O-])c4)cs3)s2)cc1`, the inhibition at 20 µM is 16% in experiment [1] and -2% in experiment [4]. Besides, the inhibition at 1 µM stood at 59.8% in experiment [2] and 4.1% in experiment [3].

Regarding `CN(C)c1ccc(Nc2nc(N)c(-c3nc(-c4ccc(-c5ccc(Cl)cc5Cl)o4)cs3)s2)cc1`, the inhibition at 20 µM in experiment [1] is -7.6%; in experiment [4], 5%. Further, the inhibition at 1 µM in experiment [2] worked out at 35.6%; in experiment [3], 17.7%.

For `COc1ccccc1-c1csc(-c2sc(Nc3ccc(N(C)C)cc3)nc2N)n1`, the results for the inhibition at 20 µM in experiment [1] and in experiment [4] were 14.8% and 0%, respectively. Moreover, the figures for the inhibition at 1 µM in experiment [2] and in experiment [3] were 8.7% and -6.4%, respectively.

For `Cc1ccc(-c2csc(-c3sc(Nc4ccc(N(C)C)cc4)nc3N)n2)cc1`, the results for the inhibition at 20 µM in experiment [1] and in experiment [4] were 15.2% and 16%, respectively. Besides, the inhibition at 1 µM was 61.6% in experiment [2] and 17.7% in experiment [3].

Take `COc1ccc(-c2csc(-c3sc(Nc4ccc(N(C)C)cc4)nc3N)n2)c(OC)c1`: the inhibition at 20 µM in experiment [1] came to 3.1%; in experiment [4] it was 1%. For the same molecule, the inhibition at 1 µM in experiment [2] is 35.4%; in experiment [3], 6.7%.

Turning to `CN(C)c1ccc(Nc2nc(N)c(-c3nc(-c4ccc(Cl)cc4)cs3)s2)cc1`, the figures for the inhibition at 20 µM in experiment [1] and in experiment [4] were 2.5% and 10%, respectively. Moreover, the inhibition at 1 µM in experiment [2] was determined as 36.5%; in experiment [3] it was 11.2%.

For `COc1ccc(OC)c(-c2csc(-c3sc(Nc4ccc(N(C)C)cc4)nc3N)n2)c1`, the inhibition at 20 µM in experiment [1] amounted to 14.1%; in experiment [4], 13%. The inhibition at 1 µM in experiment [2] came to 68.7%; in experiment [3], 15.6%.

In the case of `CCOC(=O)c1cc(-c2csc(-c3sc(Nc4ccc(N(C)C)cc4)nc3N)n2)on1`, the inhibition at 20 µM in experiment [1] was -4.5%; in experiment [4], 9%. The inhibition at 1 µM in experiment [2] is 33.7%; in experiment [3], 13.4%.

On to `CN(C)c1ccc(Nc2nc(N)c(-c3nc(-c4ccc([N+](=O)[O-])cc4)cs3)s2)cc1`, for which the figures for the inhibition at 20 µM in experiment [1] and in experiment [4] were 17.8% and 8%, respectively. Also, the inhibition at 1 µM in experiment [2] is 50.4%; in experiment [3] it was 22.1%.

`Cc1cc(-c2csc(-c3sc(Nc4ccc(N(C)C)cc4)nc3N)n2)ccc1Cl`: the inhibition at 20 µM in experiment [1] was found to be 16.6%; in experiment [4], 2%. For the same molecule, the inhibition at 1 µM in experiment [2] is 15.2%; in experiment [3], 11.7%.

Regarding `CN(C)c1ccc(Nc2nc(N)c(-c3nc(-c4ccc(-c5ccccc5)cc4)cs3)s2)cc1`, the figures for the inhibition at 20 µM in experiment [1] and in experiment [4] were 5% and -12%, respectively. For the same molecule, the inhibition at 1 µM was -12.6% in experiment [2] and 14.5% in experiment [3].

With `CN(C)c1ccc(Nc2nc(N)c(-c3nc(-c4ccc(C#N)cc4)cs3)s2)cc1`, the figures for the inhibition at 20 µM in experiment [1] and in experiment [4] were 8.2% and 11%, respectively. Further, the results for the inhibition at 1 µM in experiment [2] and in experiment [3] were 36.4% and 14.3%, respectively.

As for `CN(C)c1ccc(Nc2nc(N)c(-c3nc(-c4ccc(Cl)cc4Cl)cs3)s2)cc1`, the inhibition at 20 µM in experiment [1] was 26.9%; in experiment [4], 19%. For the same molecule, the inhibition at 1 µM in experiment [2] came out at 76.1%; in experiment [3], 17.3%.

For `Cc1onc(-c2ccccc2)c1-c1csc(-c2sc(Nc3ccc(N(C)C)cc3)nc2N)n1`, the inhibition at 20 µM in experiment [1] turned out to be 8.1%; in experiment [4], 25%. The inhibition at 1 µM in experiment [2] worked out at 59.8%; in experiment [3], 8.3%.

With `CN(C)c1ccc(Nc2nc(N)c(-c3nc(-c4ccc5c(c4)OCCO5)cs3)s2)cc1`, the inhibition at 20 µM amounted to 40.8% in experiment [1] and 16% in experiment [4]. For the same molecule, the inhibition at 1 µM is 56.5% in experiment [2] and 5% in experiment [3].

As for `CN(C)c1ccc(Nc2nc(N)c(-c3nc(-c4ccc(F)cc4)cs3)s2)cc1`, the inhibition at 20 µM turned out to be 41.7% in experiment [1] and 41% in experiment [4]. Further, the inhibition at 1 µM is 56% in experiment [2] and 34.8% in experiment [3].

With `CN(C)c1ccc(Nc2nc(N)c(-c3nc(-c4ccc(OC(=O)c5ccccc5)cc4)cs3)s2)cc1`, the figures for the inhibition at 20 µM in experiment [1] and in experiment [4] were 5.5% and -4%, respectively. For the same molecule, the inhibition at 1 µM stood at 49.4% in experiment [2] and 8.7% in experiment [3].

`Cc1c(F)cc(-c2csc(-c3sc(Nc4ccc(N(C)C)cc4)nc3N)n2)cc1Cl`: the figures for the inhibition at 20 µM in experiment [1] and in experiment [4] were 27% and 9%, respectively. The inhibition at 1 µM in experiment [2] is 76.5%; in experiment [3] it was 8.2%.

Consider `CN(C)c1ccc(Nc2nc(N)c(-c3nc(-c4cc(-c5ccc(Cl)c(Cl)c5)no4)cs3)s2)cc1`, for which the figures for the inhibition at 20 µM in experiment [1] and in experiment [4] were -2.8% and 1%, respectively. The inhibition at 1 µM was -17.5% in experiment [2] and 12.6% in experiment [3].

For the molecule `CCCCCc1ccc(-c2csc(-c3sc(Nc4ccc(N(C)C)cc4)nc3N)n2)cc1`, the inhibition at 20 µM in experiment [1] was 9.5%; in experiment [4], -8%. For the same molecule, the inhibition at 1 µM is 36.2% in experiment [2] and -6% in experiment [3].

In the case of `CC(=O)Oc1ccccc1-c1csc(-c2sc(Nc3ccc(N(C)C)cc3)nc2N)n1`, the inhibition at 20 µM in experiment [1] was -4.6%; in experiment [4] it was 24%. Further, the inhibition at 1 µM in experiment [2] was found to be 48.5%; in experiment [3], 27.8%.

For `CN(C)c1ccc(Nc2nc(N)c(-c3nc(-c4c(Cl)cc(C(F)(F)F)cc4Cl)cs3)s2)cc1`, the inhibition at 20 µM in experiment [1] was determined as 37.5%; in experiment [4], 26%. The results for the inhibition at 1 µM in experiment [2] and in experiment [3] were 82.6% and 29.1%, respectively.

Consider `CN(C)c1ccc(Nc2nc(N)c(-c3nc(-c4ccc(F)cc4F)cs3)s2)cc1`, for which the inhibition at 20 µM stood at 25.2% in experiment [1] and 34% in experiment [4]. For the same molecule, the inhibition at 1 µM is 64.3% in experiment [2] and 20.3% in experiment [3].

With `CCN(CC)c1ccc(-c2csc(-c3sc(Nc4ccc(N(C)C)cc4)nc3N)n2)cc1`, the inhibition at 20 µM in experiment [1] was 17.4%; in experiment [4] it was 16%. Also, the inhibition at 1 µM came out at 57.8% in experiment [2] and 14.6% in experiment [3].

Consider `CN(C)c1ccc(Nc2nc(N)c(-c3nc(-c4csc5ccccc45)cs3)s2)cc1`, for which the inhibition at 20 µM in experiment [1] is 12.6%; in experiment [4], 22%. Besides, the values for the inhibition at 1 µM in experiment [2] and in experiment [3] were 57.7% and 23.5%, respectively.

As to `CN(C)c1ccc(Nc2nc(N)c(-c3nc(-c4cc(C(=O)C(Cl)(Cl)Cl)n(C)c4)cs3)s2)cc1`, the inhibition at 20 µM in experiment [1] worked out at 5.2%; in experiment [4] it was 3%. Also, the inhibition at 1 µM is 45.2% in experiment [2] and 36.7% in experiment [3].

For the molecule `CN(C)c1ccc(Nc2nc(N)c(-c3nc(-c4cc5cc(Cl)ccc5o4)cs3)s2)cc1`, the inhibition at 20 µM was 7.6% in experiment [1] and -3% in experiment [4]. In addition, the figures for the inhibition at 1 µM in experiment [2] and in experiment [3] were 29.6% and 16.9%, respectively.

With `CN(C)c1ccc(Nc2nc(N)c(-c3nc(-c4cccc(Br)c4)cs3)s2)cc1`, the inhibition at 20 µM in experiment [1] is 14.2%; in experiment [4], 17%. Moreover, the inhibition at 1 µM in experiment [2] stood at 30.1%; in experiment [3], 29%.
